Results on 14 compounds are retold here after US10618930B2, “Compounds for the treatment of cancer” (Eisai R&D Management Co., Ltd., priority 2017, dated 2020).

Where two headings read alike, the source gives them in different places.

Data set [1] deals with Human STING (Homo sapiens, UniProt Q86WV6). Put plainly: Human STING reporter assay, Tables 6-8 (variant named only in a drawing). The settings on record: read-out: Human STING EC50 (μM).
The subject of data set [2] is hepatocytes of CD-1 mouse. Put plainly: Hepatocyte incubation, metabolite identification (mouse). The settings on record: 10 μmol/L. The class given is in vitro ADME. On the procedure:
(§1) Prior to incubations, the cryopreserved hepatocytes were thawed in a water bath at 37° C. One tube of cryopreserved hepatocytes was added to each 50-mL conical tube of cryopreserved hepatocyte recovery medium (UCRM) obtained from In Vitro ADMET Laboratories (Columbia, Md.). The cells were spun in a Beckman centrifuge (Brea, Calif.) with a GH 3.8 rotor at 740 rpm for 10 minutes at […]. The supernatant was removed and the cells were re-suspended in plating media for counting. After the cells were re-suspended in plating media, 20 μL of the re-suspension was transferred and mixed with 20 μL of AOPI staining solution. The solution was gently mixed and cells were counted using a Cellometer (Nexcelom, Lawrence, Mass.). After counting, the cells were then re-suspended at 1 or 2 million viable cells/mL in Williams' E media containing 2 mmol/L L-glutamine (pH 7.4).
(§2) The hepatocyte suspension (50 μL/well) was added into a 48-well plate. […]
(§3) The LC-MS/MS system was composed of a Shimadzu HPLC and an AB-SCIEX TripleTOF 5600 hybrid quadrupole and TOF mass spectrometer (Framingham, Mass.). […] The samples obtained from incubations with hepatocytes were analyzed under both negative and positive scan modes. […]

Data set [3] relates to hepatocytes of Cynomolgus monkey. Put plainly: Hepatocyte incubation, metabolite identification (monkey). It counts as in vitro ADME. The settings on record: 10 μmol/L. On the procedure:
as §1, §2, §3

Data set [4] concerns hepatocytes of Beagle dog. Put plainly: Hepatocyte incubation, metabolite identification (dog). The class given is in vitro ADME. The settings on record: 10 μmol/L. On the procedure: as §1, §2, §3
Data set [5] deals with CT26 tumors. Put plainly: CT26 dual tumor model (mouse colon cancer model).
Method: For study B, treatment was started 8 days (0.6 mg/kg, and 10 mg/kg) after the tumor implantation, when the average tumors reached approximately 120 mm^3.
All the mice in the study have two subcutaneous CT26 tumors. The “treated tumor” indicates the tumor with compound direct administration, while “untreated tumor” indicates the tumor without direct compound administration. Tumor volume was followed throughout the experiment. Tumor volume is measured two times weekly after the start of treatment. Tumor burden is calculated from caliper measurements by the formula for the volume of a prolate ellipsoid (L×W^2)/2 where L and W are the respective orthogonal length and width measurements (mm).
Data set [6] has as its system hepatocytes of human. Put plainly: Hepatocyte incubation, metabolite identification (human). The settings on record: 10 μmol/L. It counts as in vitro ADME. On the procedure: as §1, §2, §3
The test system of data set [7] is hepatocytes of Sprague Dawley rat. Put plainly: Hepatocyte incubation, metabolite identification (rat). It counts as in vitro ADME. The settings on record: 10 μmol/L. On the procedure:
as §1, §2, §3

Data set [8] concerns primary human PBMC IFNβ protein production. Put plainly: Ex vivo human PBMC stimulation assay, IFNβ protein. It counts as cell-based. The settings on record: average of five donors. On the procedure: After 24 hours of incubation the tubes were centrifuged at 1400 rpm for 5 minutes and supernatants were harvested. Supernatant were stored in −80° C. for subsequent IFNβ measurement. IFNβ measurement was done using Human IFN-β Base Kit (Meso Scale Diagnostics cat # K151ADA) and protocol provided by manufacturer was used. IFN-beta estimation was done by reading assay plate at MESO SECTOR Imager 2400 and using MSD Discovery Workbench 4.0 program. After 24 hours IFNβ protein was analyzed.
Results shown in Table 10 reflect an average of measurements conducted using five different donors.

Where [9] appears, read: Table 6, head only in drawing 188, ammonium salt form except Compounds 26, 33, 34 (bis-TEA salts).

Chain of Human STING (Q86WV6 whole entry): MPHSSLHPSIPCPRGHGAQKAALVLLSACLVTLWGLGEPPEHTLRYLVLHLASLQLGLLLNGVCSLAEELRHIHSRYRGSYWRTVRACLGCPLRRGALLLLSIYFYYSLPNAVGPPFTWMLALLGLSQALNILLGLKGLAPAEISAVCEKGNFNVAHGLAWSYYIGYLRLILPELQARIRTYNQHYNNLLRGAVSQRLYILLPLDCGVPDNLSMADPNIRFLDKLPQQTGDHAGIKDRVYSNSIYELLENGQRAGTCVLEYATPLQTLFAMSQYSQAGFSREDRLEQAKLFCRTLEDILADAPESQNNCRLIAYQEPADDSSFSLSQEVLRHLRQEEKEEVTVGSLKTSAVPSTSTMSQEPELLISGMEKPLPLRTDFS

In the case of `O=[N+]([O-])c1ccccc1CSP1(=O)OC[C@H]2O[C@H]([C@H](F)[C@@H]2O)n2cnc3c(ncnc32)CCC=CCCc2ncnc3c2ncn3[C@@H]2O[C@H](CO)[C@@H](O1)[C@H]2F` (some centres unmarked), the ring closure, yield of all isomers (from C=CCCc1ncnc2c1ncn2[C@@H]1O[C@H](COP(=O)(O[C@H]2[C@@H](F)[C@H](n3cnc4c(CCC=C)ncnc43)O[C@@H]2COC(c2ccccc2)(c2ccc(OC)cc2)c2ccc(OC)cc2)SCc2ccccc2[N+](=O)[O-])[C@@H](O)[C@H]1F, rcm bond, 2 steps) was found to be 26.2%.
In general, EC50 refers to the concentration needed to bring the measured effect to its halfway point. Turning to `O=[P@@]1(S)OC[C@H]2O[C@@H]3[C@H](F)[C@@H]2O[P@](=O)(S)OC[C@H]2OC([C@H](F)[C@@H]2O1)n1cnc2c(ncnc21)OC/C=C/COc1ncnc2c1ncn23` [Compound 26], in [1] (setting [9]), the EC50 stood at 7.4 µM.
For the setting “from C=CCN(C(=O)c1ccccc1)c1ncnc2c1ncn2[C@@H]1O[C@@H]2CO[P@@](=S)(OCCC#N)N[C@H]3[C@@H](O[Si](C)(C)C(C)(C)C)[C@H](n4cnc5c(N(CC=C)C(=O)c6ccccc6)ncnc54)O[C@@H]3CO[P@](=S)(OCCC#N)N[C@H]2[C@H]1O[Si](C)(C)C(C)(C)C, rcm bond”, `CC(C)(C)[Si](C)(C)O[C@@H]1[C@@H]2N[P@@](=S)(OCCC#N)OC[C@H]3O[C@@H]4[C@H](O[Si](C)(C)C(C)(C)C)[C@@H]3N[P@](=S)(OCCC#N)OC[C@H]2O[C@H]1n1cnc2c(ncnc21)N(C(=O)c1ccccc1)CC=CCN(C(=O)c1ccccc1)c1ncnc2c1ncn24` yielded a ring closure, yield of all isomers of 24.5%.
With `O=P1(O)OC[C@H]2OC3[C@H](F)[C@@H]2O[P@](O)(=S)OC[C@H]2O[C@H]([C@H](F)[C@@H]2O1)n1cnc2c(ncnc21)NC/C=C/CNc1ncnc2c1ncn23` [Compound 28], the EC50 in data set [1] turned out to be 18.4 µM.
In turn, `O=[N+]([O-])c1ccccc1CS[P@]1(=O)OC[C@H]2O[C@@H]3[C@H](F)[C@@H]2O[P@](=O)(SCc2ccccc2[N+](=O)[O-])OC[C@H]2O[C@H]([C@H](F)[C@@H]2O1)n1cnc2c(ncnc21)OCC=CCOc1ncnc2c1ncn23` showed a ring closure, yield of all isomers (from C=CCOc1ncnc2c1ncn2[C@@H]1O[C@@H]2CO[P@@](=O)(SCc3ccccc3[N+](=O)[O-])O[C@H]3[C@@H](F)[C@H](n4cnc5c(OCC=C)ncnc54)O[C@@H]3CO[P@@](=O)(SCc3ccccc3[N+](=O)[O-])O[C@H]2[C@H]1F, rcm bond) of 3.6%.
As to `CC(C)(C)[Si](C)(C)O[C@H]1[C@H]2O[P@@](=O)(SCc3ccccc3[N+](=O)[O-])OC[C@H]3O[C@@H]4[C@H](F)[C@@H]3O[P@](=O)(SCc3ccccc3[N+](=O)[O-])OC[C@H]1O[C@H]2n1cnc2c(ncnc21)N(C(=O)c1ccccc1)CC=CCN(C(=O)c1ccccc1)c1ncnc2c1ncn24`, for the setting “from C=CCN(C(=O)c1ccccc1)c1ncnc2c1ncn2[C@@H]1O[C@@H]2CO[P@](=O)(SCc3ccccc3[N+](=O)[O-])O[C@@H]3[C@H](O[Si](C)(C)C(C)(C)C)[C@@H](CO[P@@](=O)(SCc4ccccc4[N+](=O)[O-])O[C@H]2[C@H]1F)O[C@H]3n1cnc2c(N(CC=C)C(=O)c3ccccc3)ncnc21, rcm bond”, the ring closure, yield of all isomers was determined as 6.1%.
On to `O=P1(O)OC[C@H]2OC3[C@H](F)[C@@H]2O[P@@](O)(=S)OC[C@H]2O[C@H]([C@H](F)[C@@H]2O1)n1cnc2c(ncnc21)NC/C=C/CNc1ncnc2c1ncn23` [Compound 27], for which the EC50 in [1] was 27.6 µM.
On to `O=[P@]1(S)OC[C@H]2OC3[C@H](F)[C@@H]2O[P@](=O)(S)OC[C@H]2O[C@H]([C@H](F)[C@@H]2O1)n1cnc2c(ncnc21)NCC#CCNc1ncnc2c1ncn23` [Compound 29], for which the EC50 in data set [1] (setting [9]) was 8.4 µM.
Take `O=[P@]1(S)OC[C@H]2O[C@@H]3[C@H](F)[C@@H]2O[P@](=O)(S)OC[C@H]2O[C@H]([C@H](F)[C@@H]2O1)n1cnc2c(ncnc21)NC/C=C/CNc1ncnc2c1ncn23` [Compound 1a]: the “metabolites identified (LC-MS/MS)” value in data set [2] (mouse hepatocytes), in data set [3] (monkey hepatocytes), in [4] (dog hepatocytes), in data set [6] (human hepatocytes) and in data set [7] (rat hepatocytes) was “No apparent metabolite” each time. In addition, the “stability in incubations with hepatocytes” value is “stable” in data set [2] (mouse, up to 240 minutes); “stable” in data set [3] (monkey, up to 240 minutes); “stable” in data set [4] (dog, up to 240 minutes); “stable” in data set [6] (human, up to 240 minutes); “stable” in data set [7] (rat, up to 240 minutes). In addition, the “cure rate, treated tumors” value in data set [5] (0.6 mg/kg, intratumoral single dose (study B)) came to 20%. Besides, in data set [5] (10 mg/kg, intratumoral single dose (study B)), the “animals cured of treated tumor at the end of study” value was found to be 100%. For the same compound, the “curative effects, untreated tumors” value in data set [5] (10 mg/kg, intratumoral single dose into the other tumor) stood at 80%. The “IFNβ” value in data set [8] (0.1 μM, 24 hours) was 21.3 ± 17.8 pg/mL; in [8] (10 μM, 24 hours), 540.2 ± 215.0 pg/mL; in data set [8], 227.5 ± 62.4 pg/mL.
For the compound `O=[P@]1(S)OC[C@H]2OC3[C@H](F)[C@@H]2O[P@](=O)(S)OC[C@H]2O[C@H]([C@H](F)[C@@H]2O1)n1cnc2c(ncnc21)NCC1NC1CNc1ncnc2c1ncn23` (single isomer, unassigned) [Compound 36], the EC50 in data set [1] (setting [9]) stood at 94.1 µM.
On to `O=C(c1ccccc1)N1CC=CCN(C(=O)c2ccccc2)c2ncnc3c2ncn3[C@@H]2O[C@@H]3CO[P@](=O)(SCc4ccccc4[N+](=O)[O-])O[C@H]4[C@@H](F)[C@@H](O[C@@H]4CO[P@@](=O)(SCc4ccccc4[N+](=O)[O-])O[C@H]3[C@H]2F)n2cnc3c1ncnc32`, for which, where the note is “from C=CCN(C(=O)c1ccccc1)c1ncnc2c1ncn2[C@@H]1O[C@@H]2CO[P@@](=O)(SCc3ccccc3[N+](=O)[O-])O[C@H]3[C@@H](F)[C@H](n4cnc5c(N(CC=C)C(=O)c6ccccc6)ncnc54)O[C@@H]3CO[P@](=O)(SCc3ccccc3[N+](=O)[O-])O[C@H]2[C@H]1F, rcm bond”, the ring closure, yield of all isomers was determined as 39%.
Turning to `O=[P@]1(S)OC[C@H]2OC3[C@H](F)[C@@H]2O[P@](=O)(S)OC[C@H]2O[C@H]([C@H](F)[C@@H]2O1)n1cnc2c(ncnc21)NCC1NC1CNc1ncnc2c1ncn23` (single isomer, unassigned) [Compound 35], in data set [1] (setting [9]), the EC50 turned out to be 67.2 µM.
For `O=C(c1ccccc1)N1CC=CCOc2ncnc3c2ncn3[C@@H]2O[C@@H]3COP(=O)(SCc4ccccc4[N+](=O)[O-])O[C@H]4[C@@H](F)[C@@H](O[C@@H]4COP(=O)(SCc4ccccc4[N+](=O)[O-])O[C@H]3[C@H]2F)n2cnc3c1ncnc32` (some centres unmarked), under “from C=CCOc1ncnc2c1ncn2[C@@H]1O[C@@H]2COP(=O)(SCc3ccccc3[N+](=O)[O-])O[C@H]3[C@@H](F)[C@H](n4cnc5c(N(CC=C)C(=O)c6ccccc6)ncnc54)O[C@@H]3COP(=O)(SCc3ccccc3[N+](=O)[O-])O[C@H]2[C@H]1F, rcm bond”, the ring closure, yield of all isomers is 25.6%.
With `C=CCN(C(=O)c1ccccc1)c1ncnc2c1ncn2[C@@H]1O[C@@H]2COP(=S)(OCCC#N)O[C@H]3[C@@H](F)[C@H](n4cnc5c(N(CC=C)C(=O)c6ccccc6)ncnc54)O[C@@H]3COP(=O)(S)O[C@H]2[C@H]1F` (some centres unmarked), the ring closure, yield of all isomers (from C=CCN(C(=O)c1ccccc1)c1ncnc2c1ncn2[C@@H]1O[C@H](COP(=S)(OCCC#N)O[C@H]2[C@@H](F)[C@H](n3cnc4c(N(CC=C)C(=O)c5ccccc5)ncnc43)O[C@@H]2CO)[C@@H](O[PH](=O)O)[C@H]1F, other bond, 2 steps) was determined as 100%.
